Reference: patent US20110251379A1, “COMPOUNDS USEFUL FOR TREATING NEURODEGENERATIVE DISORDERS” (Satori Pharmaceuticals, Inc., priority 2010, published 2011)
Where two headings read alike, the source gives them in different places.

Experiments:
Format in all cases: cell-based
Aβ-38 = assay: MSD Human (6E10) Ab 3-PLEX elisa, conditioned media of 2B7 cells: Aβ-38; conditions: Homo sapiens, Aβ-38 (superscript a)
Method: (§1) Assays were conducted to determine the ability of a Compound of Formula I to modulate […], and Aβ-38.
(§2) Plates with capture antibodies were blocked for 1-2 hours at room temperature with 150 μL of the manufactures blocking reagent.
(§3) Conditioned Media: • Cultured 2B7 cells in 96 well plate with 250 uL of media per well until confluent; • Prepared serial dilutions of compounds in DMSO at 100× the final desired concentration; • Washed wells with 2B7 cells 1× with 250 uL of media; • Diluted DMSO stocks 1:100 into media: • Added 250 μL of media containing compounds (1% DMSO) to wells with 2B7 cells for 5 hours at 37° C.
(§4) Elisa Sample Prep: • Diluted conditioned media: 1 part media with 1% DMSO and 1 part blocking buffer; • 150 μL of the 250 μL of conditioned media were used.
(§5) […] CURVE SAMPLE PREP: Prepared per manufacturer's protocol (see above) • Seven point standard curve samples were prepared that contained Aβ-42, Aβ-40, and Aβ-38. The highest concentration of Aβ-42 and Aβ-3-38 was 3,000 pg/mL and the highest concentration of Aβ-40 was 10,000 pg/mL. Subsequent serial dilutions were 1:3 and the final composition of each sample was 1 part blocking buffer and 1 part cell medium containing 1% DMSO.
(§6) Overnight Sample Incubation: • Blocked plates are washed 5× with MSD wash buffer with a plate washer • 25 uL of detection antibody and blocker G reagent in MSD blocking solution is added • 25 uL of samples (1 part conditioned media containing 1% DMSO and 1 part MSD blocking buffer) are then added. • plates are incubated overnight at 4 degrees C. or 2 hours at room temp
(§7) Final Wash and Readout: • Wash wells 5× with MSD wash buffer • Added 150 μL 2×MSD read buffer • Read with MSD imager.
(§8) A-Beta peptide levels for each peptide are calculated from the standard curve using the MSD software provided with the MSD 2400 Imager. Percent vehicle values for each compound dosage were then calculated and fit to a 4 parameter curve generating IC50 values.

Aβ-40 = assay: MSD Human (6E10) Ab 3-PLEX elisa, conditioned media of 2B7 cells: Aβ-40; conditions: Homo sapiens; for IC50: Aβ-40 (superscript b); for inhibition at 20 µM: Aβ-40, 20 μM
Method: as §1, §2, §3, §4, §5, §6, §7, §8

Aβ-42 = assay: MSD Human (6E10) Ab 3-PLEX elisa, conditioned media of 2B7 cells: Aβ-42; conditions: Homo sapiens; for IC50: Aβ-42 (superscript c); for inhibition at 20 µM: Aβ-42, 20 μM
Method: as §1, §2, §3, §4, §5, §6, §7, §8

SMILES | IC50 (Aβ-38; read-out: 50% reduction value) | IC50 (Aβ-40; read-out: 50% reduction value) | IC50 (Aβ-42; read-out: 50% reduction value) | inhibition at 20 µM (Aβ-40) | inhibition at 20 µM (Aβ-42) | IC50 (Aβ-42; read-out: IC50 range) | IC50 (Aβ-38; read-out: IC50 range) | IC50 (Aβ-40; read-out: IC50 range)
CS[C@@H](C1C[C@@H](C)[C@H]2C(O1)[C@H](O)[C@@]1(C)C3CC[C@H]4C(C)(C)C(O)CC[C@@]45C[C@@]35CC[C@]21C)C(C)(C)O (stereo partly shown) | < 1000 nM | > 10000 nM | 1000 to 10000 nM |  |  |  |  | 
C[C@@H]1CC([C@H]([S+](C)[O-])C(C)(C)O)OC2[C@H]1[C@@]1(C)CC[C@@]34C[C@@]35CCC(O)C(C)(C)[C@@H]5CCC4[C@]1(C)[C@H]2O (stereo partly shown) | 1000 to 10000 nM |  |  | 25 to 75% | 25 to 75% |  |  | 
C[C@@H]1CC([C@@H](C(C)(C)O)S(C)(=O)=O)OC2[C@H]1[C@@]1(C)CC[C@@]34C[C@@]35CCC(O)C(C)(C)[C@@H]5CCC4[C@]1(C)[C@H]2O (stereo partly shown) | 1000 to 10000 nM |  |  | 25 to 75% | 25 to 75% |  |  | 
CC[S+]([O-])[C@@H](C1C[C@@H](C)[C@H]2C(O1)[C@H](O)[C@@]1(C)C3CC[C@H]4C(C)(C)C(O[C@H]5CN(C6COC6)CCO5)CC[C@@]45C[C@@]35CC[C@]21C)C(C)(C)O (stereo partly shown) | 1000 to 10000 nM |  |  | 25 to 75% | 25 to 75% |  |  | 
CO[C@@H](C1C[C@@H](C)[C@H]2C(O1)[C@H](O)[C@@]1(C)C3CC[C@H]4C(C)(C)C(OC(=O)N5CCC5)CC[C@@]45C[C@@]35CC[C@]21C)C(C)(C)O (stereo partly shown) | 1000 to 10000 nM | > 10000 nM | 1000 to 10000 nM |  |  |  |  | 
CNC(=O)O[C@H](C(C)C)C1C[C@@H](C)[C@H]2C(O1)[C@H](O)[C@@]1(C)C3CC[C@H]4C(C)(C)C(OC(=O)NC5CNC5)CC[C@@]45C[C@@]35CC[C@]21C (stereo partly shown) | < 1000 nM | 1000 to 10000 nM | < 1000 nM |  |  | < 1000 nM |  | 
CCO[C@@H]([C@H]1C[C@@H](C)[C@H]2[C@H](O1)[C@H](O)[C@@]1(C)[C@@H]3CC[C@H]4C(C)(C)[C@@H](OC(=O)NC5CN(C)C5)CC[C@@]45C[C@@]35CC[C@]21C)C(C)(C)O | < 1000 nM | < 1000 nM | < 1000 nM |  |  | < 1000 nM | < 1000 nM | 1000 to 10000 nM
CCO[C@@H]([C@H]1C[C@@H](C)[C@H]2[C@H](O1)[C@H](O)[C@@]1(C)[C@@H]3CC[C@H]4C(C)(C)[C@@H](OC5CNCCO5)CC[C@@]45C[C@@]35CC[C@]21C)C(C)(C)O (stereo partly shown) | < 1000 nM | 1000 to 10000 nM | < 1000 nM |  |  | < 1000 nM | < 1000 nM | 1000 to 10000 nM
CCO[C@@H]([C@H]1C[C@@H](C)[C@H]2[C@H](O1)[C@H](O)[C@@]1(C)[C@@H]3CC[C@H]4C(C)(C)[C@@H](OC5CN(C)CCO5)CC[C@@]45C[C@@]35CC[C@]21C)C(C)(C)O (stereo partly shown) | < 1000 nM | 1000 to 10000 nM | < 1000 nM |  |  | < 1000 nM | < 1000 nM | 1000 to 10000 nM
CCO[C@@H]([C@H]1C[C@@H](C)[C@H]2[C@H](O1)[C@H](O)[C@@]1(C)[C@@H]3CC[C@H]4C(C)(C)[C@@H](OC5CN(C(=O)C(C)C)CCO5)CC[C@@]45C[C@@]35CC[C@]21C)C(C)(C)O (stereo partly shown) | < 1000 nM | 1000 to 10000 nM | < 1000 nM |  |  | < 1000 nM | < 1000 nM | 1000 to 10000 nM
C=C(C)CO[C@@H](C1C[C@@H](C)[C@H]2C(O1)[C@H](O)[C@@]1(C)C3CC[C@H]4C(C)(C)C(O[C@H]5CN(C6COC6)CCO5)CC[C@@]45C[C@@]35CC[C@]21C)C(C)(C)O (stereo partly shown) | < 1000 nM | 1000 to 10000 nM | < 1000 nM |  |  | < 1000 nM | < 1000 nM | 
CC(C)CO[C@@H](C1C[C@@H](C)[C@H]2C(O1)[C@H](O)[C@@]1(C)C3CC[C@H]4C(C)(C)C(O[C@H]5CN(C6COC6)CCO5)CC[C@@]45C[C@@]35CC[C@]21C)C(C)(C)O (stereo partly shown) | < 1000 nM | 1000 to 10000 nM | 1000 to 10000 nM |  |  |  | < 1000 nM | 1000 to 10000 nM
CO[C@@H]([C@H]1C[C@@H](C)[C@H]2[C@H](O1)[C@H](O)[C@@]1(C)[C@@H]3CC[C@H]4C(C)(C)[C@@H](OC5CN(C(=O)C(C)C)CCO5)CC[C@@]45C[C@@]35CC[C@]21C)C(C)(C)O (stereo partly shown) | < 1000 nM | 1000 to 10000 nM | < 1000 nM |  |  | < 1000 nM | < 1000 nM | 
C[C@@H]1CC([C@@H]2OCOC2(C)C)OC2[C@H]1[C@@]1(C)CC[C@@]34C[C@@]35CCC(O[C@H]3CN(C6COC6)CCO3)C(C)(C)[C@@H]5CCC4[C@]1(C)[C@H]2O (stereo partly shown) | 1000 to 10000 nM |  | > 10000 nM | 25 to 75% |  |  |  | 
